What was measured:
[1] = typical; (94 ng·mL^−1); cited from earlier work
[2] = Body weight of animals after MCAO; type: in vivo, Sprague Dawley rats
Procedure: Animals: 45 male Sprague Dawley Rats, 300-400 g (obtained from Charles River Laboratories, which arrived 7-10 days before surgery at 250-275 g) were used.
Treatment groups: Dosing was started 4 weeks after pMCAO surgery. During these 4 weeks, weekly behavioral assessments, as defined below, were performed. Two dose levels of 4-AP plus vehicle control were assessed, with treatment starting at 4 weeks after ischemic event. All dosing was via gastric gavage, volume not to exceed 2 mL/kg. Animals were given the first dose and behavioral assessments were performed starting 60 minutes after dosing. Animals then received the second dose that day at the appropriate time and b.i.d (preferably every 12 hours) thereafter for 2 more days (3 total days of dosing, 5 total doses). One hour after the 5th dose, animals were subjected to behavioral assessments as defined below. Following the final behavioral assessment, drug was withdrawn for 10 or 11 days, behavior was re-assessed, and then animals were re-challenged with a cross-over treatment (Phase II of Table 1B) as described in Tables 1A, 1B, followed by the same behavioral testing and dosing regimen. This cross-over was repeated one more time as well (Phase III of Table 1B) (see FIG. 2).

Nc1ccncc1 [4-AP, 4-aminopyridine]
plasma concentrations obtained in clinical studies [1]: < 1000 nM
Weight (g), Mean ([2]; Group I, D30, first dosing phase (high dose, inferred)): 453.1 g
Weight (g), Mean ([2]; Group I, D32, first dosing phase (high dose, inferred)): 436.3 g
Weight (g), Mean ([2]; Group I, D44, second dosing phase (low dose, inferred)): 476.2 g
Weight (g), Mean ([2]; Group I, D46, second dosing phase (low dose, inferred)): 471.1 g
Weight (g), Mean ([2]; Group II, D30, first dosing phase (low dose, inferred)): 446.0 g
Weight (g), Mean ([2]; Group II, D32, first dosing phase (low dose, inferred)): 438.1 g
Weight (g), Mean ([2]; Group II, D58, third dosing phase (high dose, inferred)): 500.9 g
Weight (g), Mean ([2]; Group II, D60, third dosing phase (high dose, inferred)): 483.0 g
Weight (g), Mean ([2]; Group III, D44, second dosing phase (high dose, inferred)): 471.9 g
Weight (g), Mean ([2]; Group III, D46, second dosing phase (high dose, inferred)): 451.0 g
Weight (g), Mean ([2]; Group III, D58, third dosing phase (low dose, inferred)): 494.9 g
Weight (g), Mean ([2]; Group III, D60, third dosing phase (low dose, inferred)): 485.1 g

Source: US20130030025A1, “USE OF POTASSIUM CHANNEL BLOCKERS TO TREAT CEREBRAL PALSY” (priority 2011, published 2013)
